Data published in US20240327459A1, “PEPTIDE FRAGMENTS FOR TREATMENT OF DIABETES” (Follicum AB, priority 2018, published 2024).
Entries after “also recorded” stand apart in the source; their conditions may differ. Where no end group is shown, it is not given here.

Columns and labels:
INS-1E cells = test: Insulin secretion by novel peptide analogues (Example 21, FIG. 16); assay type: cell-based, rat; conditions: 100 nM peptide, high glucose buffer, vs un-supplemented high glucose buffer
Description: Materials and methods: Rat INS-1 β-cells (passages 60-70) were cultured at 37° C. and 5% CO2 in cRPMI media (RPMI 1640 supplemented with 10% fetal bovine serum, 50 IU/mL penicillin, 50 mg/L streptomycin, 10 mM HEPES, 2 mM L-glutamine, 1 mM sodium pyruvate, and 50 μM beta-mercaptoethanol) unless otherwise stated. INS-1 cells were seeded in 96-well plates (2×10^3 cells/well) in cRPMI medium and following overnight incubation, the cells were washed in PBS before pre-incubation for 120 min at 37° C. in Krebs-Ringer bicarbonate buffer, pH 7.4, supplemented with 10 mM HEPES, 0.1% bovine serum albumin and 2.8 mM glucose. Following pre-incubation, the buffer was exchanged with fresh Krebs-Ringer buffer as described above and supplemented with specific glucose concentrations and peptides for the individual experiments as described below. Immediately after 60 minutes incubation at 37° C., an aliquot of the buffer was removed and frozen for subsequent insulin ELIZA assay.
In order to correct for the variance between experiments, all values were normalized to, and expressed as percentage of the average value of the high glucose control in the individual experiments. The analogues were subsequently ranked according to performance (FIG. 16).

mouse pancreatic islets = test: Insulin secretion from isolated mouse pancreatic islets (Examples 5 and 7); assay type: cell-based; conditions: 60 min
Description: Mouse pancreatic islets were isolated from 8-week old C57BL/6J male mice (Taconic). Mice were sacrificed by an overdose of isoflurane and cervical dislocation. 3 ml of 0.9 U/ml collagenase P was injected into the pancreatic duct to inflate the pancreas. The Pancreas was then removed and collagen digested for 19 min at 37° C. The samples Were vigorously shaken to disrupt the tissue. The digest was transferred into ice cold Hank's Balanced Salt Solution (HBSS) with Ca^2+ and Mg^2+. The suspension was allowed to sit for 10 min to allow the islet to sink, and the islets were washed in fresh HBSS four times. The islets were then hand-picked and sorted according to size. Islets (n=3 per well in a 96 well plate) were pre-incubated in KRB buffer during 10 min 37° C., pH 7.4, supplemented with 10 mM HEPES, 0.1% bovine serum albumin. After pre-incubation, the buffer was changed and islets were incubated at different test conditions in new KRB buffer with 0.1% bovine serum albumin (non-treated ctrl, FOL-005 peptide, or GLP-1) for 60 min at 37° C. Immediately after incubation, an aliquot of the buffer was removed and frozen for subsequent assay of insulin.
Mouse pancreatic islets were isolated from 8-week old C57BL/6J male mice as described under example 5. The islets were then hand-picked and sorted according to size. Islets (n=5 per well in a 96 well plate) were pre-incubated in 200 μl KRB buffer during 10 min 37° C., pH 7.4, supplemented with 10 mM HEPES, 0.1% bovine serum albumin. Following pre-incubation, the buffer was changed and islets were incubated in different test conditions in new KRB buffer with 0.1% bovine serum albumin (non-treated ctrl, FOL-014 peptide, and GLP-1) for 60 min at 37° C. Immediately after incubation, an aliquot of the buffer was removed and frozen for subsequent assay of insulin.

isolated mouse islets = test: Insulin and glucagon secretion from isolated mouse islets (Example 12); assay type: cell-based; conditions: 100 nM
Description: Twelve-week-old male C57/bl6 mice were euthanized with isoflurane and cervical dislocation. After clamping the hepatic ducts, 3 ml of 0.9 U/ml collagenase P was injected into the bile duct to inflate the pancreas. The pancreas was then removed and digested for 19 min at 37° C. The samples were vigorously shaken to disrupt the tissue. The digest was quickly transferred into ice cold Hank's Balanced Salts Solution with Ca^2+ and Mg^2+. The suspension was allowed to sit for 8 min to allow the islet to sink, and the islets were washed in the same manner four times. The islets were then handpicked and sorted according to size.
Freshly isolated islets were seeded in groups of 5 in a 96-well plate and preincubated for 1 h at 37° C. in a Krebs-Ringer bicarbonate buffer (pH 7.4). The islets were incubated for 1 h at 37° C. in Krebs-Ringer buffered solution supplemented with 0.6 or 6 μM FOL-014 or 100 nM GLP-1 or left unsupplemented for control. Immediately after incubation, the medium was removed for assays of insulin and glucagon using Mercodia's ELISA kits. The effect of FOL-014 on insulin (FIGS. 8A and B) and glucagon (FIGS. 8C and D) secretion from isolated mouse islets was measured in the presence of low glucose (2.8 mM; FIGS. 8A and C) or high glucose (16.7 mM; FIGS. 8B and D) concentrations.

INS-1 cells [1] = test: Glucotoxicity-induced apoptosis of INS-1 cells (Annexin V staining, caspase-3 activity); assay type: cell-based, rat; conditions: 20 mM glucose, 48 h, vs 20 mM glucose alone
Description: Since glucotoxicity in pancreatic β-cells is a well-established process in type 2 diabetes we next investigated the protective effects of FOL-005 on β-cells during glucotoxic conditions. First we confirmed that 20 mM glucose induced cell apoptosis in INS cells after 48 h of exposure. High glucose (20 mM) containing RPMI medium induced more Annexin V positive cells and more caspase-3 activity in INS cells compared to cells incubated with medium containing 5 mM glucose (FIG. 2A-B). […] The rate of apoptosis in INS-1 cells was measured with either Caspase-3 Assay Kit or stained with Annexin V Apoptosis Detection Kit with 7-AAD. Caspase-3 activity was measured with fluorescence at an excitation wavelength of 380 nm and an emission wavelength of 440 nm. Caspase-3 activity was then normalized to protein concentration in each well. Measurements of
Annexin V stained cells were performed using a CyAn ADP flow cytometer and analyzed with Summit V4.3 software.

INS-1 cells [2] = test: Proliferation of INS-1 cells ([methyl-3H] thymidine incorporation); assay type: cell-based, rat
Description: To investigate if FOL-005 and FOL-014 could induce proliferation of β-cells we used INS-1 cells. Rat INS-1 cells were seeded in 96-well plates in RPMI medium with supplement and after 2 hours the medium was changed to RPMI without supplement. During the proliferation experiment the cells were incubated at different test conditions (FOL-005, FOL-014, coated or in solution, 48 h incubation) and during the last 20 hours of culture period the cells were pulsed with 1 μ Ci/well of [methyl-3H] thymidine. The cells were then harvested onto glass fiber filters using a FilterMate harvester. The filters were air dried, and the bound radioactivity was measured using a liquid scintillation counter. To study whether FOL-005 influenced β-cell proliferation, INS-1 cells were treated with increasing amounts of soluble FOL-005 (0.06-6 μM) during 48 hours and proliferation was measured with radiolabeled thymidine incorporation into newly synthesized DNA.

INS-1 β-cells = test: Insulin secretion from INS-1 cells (Examples 4 and 6); assay type: cell-based, rat; conditions: 6 μM peptide
Description: To investigate the stimulatory effect of FOL-005 on insulin secretion, INS-1 β-cells were used in the following experiments. Cells were seeded overnight in cRPMI and then washed with PBS before pre-incubation for 60 min at 37° C. in Krebs-Ringer bicarbonate buffer (KRB), pH 7.4, supplemented with 10 mM HEPES, 0.1% bovine serum albumin. After pre-incubation, the buffer was changed and the INS-1 cells were incubated at different test conditions (0 mM, 5 mM or 20 mM glucose) and stimulated with peptide FOL-005 or FOL-015 (SEQ ID NO: 158) or left untreated during 60 min at 37° C. Immediately after incubation, an aliquot of the buffer was removed and frozen for subsequent assay of insulin with an insulin radioimmunoassay kit.
INS-1 β-cells were used to investigate the stimulatory effect of FOL-014 on insulin secretion. Cells were seeded overnight and then washed with PBS before pre-incubation for 60 min at 37° C. in Krebs-Ringer bicarbonate buffer (KRB), pH 7.4, supplemented with 10 mM HEPES, 0.1% bovine serum albumin. After pre-incubation, the buffer was changed and the INS-1 cells were incubated in new KRB buffer supplemented with 10 mM HEPES, 0.1% bovine serum albumin and stimulated with peptide FOL-014 or left untreated during 60 min at 37° C. Immediately after incubation, an aliquot of the buffer was removed and frozen for subsequent assay of insulin.

In the case of “DSIELSYGIK (MISC_FEATURE - peptide) [FOL-059]”, the insulin secretion (INS-1E cells) is reported as “increased the insulin secretion as compared with cells treated with an un-supplemented high glucose buffer”.

“EIDSIELSYGIK (MISC_FEATURE - peptide) [FOL-057]” was tested, and the insulin secretion (INS-1E cells) was “increased the insulin secretion as compared with cells treated with an un-supplemented high glucose buffer”.

For “GLP-1: native glucagon-like peptide-1, metabolic hormone that stimulates insulin secretion; comparator (HAEGTFTSDVSSYLEGQAAKEFIAWLVKGR; ends and bridges not checked; UniProt P01275 98-127, looked up) [reference compound]”, the insulin secretion (mouse pancreatic islets; Example 5, 100 nM, vs unstimulated control islets) was “secreted more insulin compared to unstimulated control islets”, the insulin secretion (mouse pancreatic islets; Example 7, 100 nM) was “did not affect insulin secretion; also recorded: had no effect on insulin secretion” and the glucagon secretion (isolated mouse islets; high glucose (16.7 mM)) was “efficiently reduced glucagon secretion”. For the same substance, the insulin secretion (isolated mouse islets; high glucose (16.7 mM)) was “significantly increased insulin secretion”, the glucagon secretion (isolated mouse islets; low glucose (2.8 mM)) was “failed to inhibit glucagon secretion in low glucose conditions” and the insulin secretion (isolated mouse islets; low glucose (2.8 mM)) was “enhanced insulin secretion also in low glucose samples”.

In the case of “IDSIELSYGIK (MISC_FEATURE - peptide) [FOL-058]”, the insulin secretion (INS-1E cells) is reported as “increased the insulin secretion as compared with cells treated with an un-supplemented high glucose buffer”.

For “VDTYDGDISVVYGLR (MISC_FEATURE - peptide, FOL-005)”, the “apoptotic cells (Annexin V positive)” value (INS-1 cells [1]) was “decreased cell apoptosis; also recorded: reduced the level of apoptotic cells compared to 20 mM glucose alone”, the caspase-3 activity (INS-1 cells [1]) was “decreased cell apoptosis; also recorded: diminished the rate of glucotoxicity-induced caspse-3 activity” and the insulin secretion (mouse pancreatic islets; Example 5, 6 μM, vs unstimulated control islets) was “secreted more insulin compared to unstimulated control islets”. The “proliferation of INS-1 cells” value (INS-1 cells [2]; peptide in solution, 0.06-6 μM, 48 hours) was “stimulated INS-1 cell proliferation; also recorded: induced increasing proliferation of INS-1 cells”, the “proliferation of INS-1 cells” value (INS-1 cells [2]; wells coated with peptide and blocked with BSA, vs BSA coated control wells) was “stimulated proliferation compared to control; also recorded: induced more proliferation of β-cells compared to only BSA coated control” and the “insulin secretion at 20 mM glucose compared with 5 mM glucose” value (INS-1 β-cells) was “responded with more insulin secretion compared to FOL-005 stimulated cells incubated with 5 mM glucose”. For the same substance, the insulin release (INS-1 β-cells; 5 mM or 20 mM glucose) was “responded with insulin secretion; also recorded: stimulated insulin release” and the insulin release (INS-1 β-cells; non glucose containing media, 60 min, vs unstimulated control and FOL-015) was “secreted more insulin compared to unstimulated control cells or to cells stimulated with the FOL-015 control peptide; also recorded: increased”.
